Results published in patent US20250388605A1, “HETEROBIFUNCTIONAL COMPOUNDS AND METHODS OF TREATING DISEASE” (Halda Therapeutics OpCo, Inc., priority 2022, published 2025).

Tests used:
T47D cells = assay: Cellular Growth Inhibition Assay for T47D Cells (CellTiter-Glo); assay type: cell-based, human; details: 72 hours
Procedure, shortened: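 GI50 values derive from four-parameter regression of CellTiter-Glo 2.0 luminescence, using zero luminescence as baseline. Human breast cancer T47D cells (3000/well; DMEM, 10% FBS, 0.2 units/mL insulin) were exposed for 72 h to compound dilutions at 0.5% DMSO, with dosing starting 24 h after seeding.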

[1] = tested on: T-Rex 293 cell line SC3 cells lacking increased expression of androgen receptor protein; assay: Cellular growth inhibition, T-Rex 293 SC3 cells without doxycycline (no increased androgen receptor expression), CellTiter-Glo; assay type: cell-based; details: T-Rex 293 SC3 cells not exposed to doxycycline (no increased androgen receptor expression), 72 hours
Procedure, shortened: (§1)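 Doxycycline (10 ng/mL) was either included or omitted to toggle wild-type androgen receptor expression in SC3 cells, a T-Rex 293 clone, grown in stripped-serum, phenol red-free medium. After 72 hours with compound, viable cells were quantified by CellTiter-Glo 2.0.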

[2] = tested on: T-Rex 293 cell line SC3 cells having increased expression of androgen receptor protein due to exposure to doxycycline; assay: Cellular growth inhibition, T-Rex 293 SC3 cells with doxycycline (increased androgen receptor expression), CellTiter-Glo; assay type: cell-based; details: T-Rex 293 SC3 cells with 10 ng/mL doxycycline (increased androgen receptor expression), 72 hours, CellTiter-Glo 2.0
Procedure, shortened: as §1

| SMILES | GI50 (T47D cells; Homo sapiens) [nM] | GI50 (T47D cells) [nM] | GI50 [1] [nM] | GI50 [2] [nM] |
| --- | --- | --- | --- | --- |
| Cn1cc(-c2cc(C(C)(C)O)ccc2Oc2ccc(CCOC3CCN(c4ncc(C(=O)N[C@H]5C(C)(C)[C@H](Oc6ccc(C#N)c(Cl)c6)C5(C)C)cn4)CC3)cc2)c2cc[nH]c2c1=O [Compound I-194] | 500 to 1500 | – | 1500 to 3000 | < 500 |
| Cc1ccc(CCCOC2CCN(c3ncc(C(=O)N[C@H]4C(C)(C)[C@H](Oc5ccc(C#N)c(Cl)c5)C4(C)C)cn3)CC2)c(C)c1Oc1ccc(C(C)(C)O)cc1-c1cn(C)c(=O)c2[nH]ccc12 [Compound I-195] | 500 to 1500 | – | > 3000 | < 500 |
| Cn1cc(-c2cc(C(C)(C)O)ccc2Oc2cccc(N3CC(CC4CCN(c5ncc(C(=O)N[C@H]6C(C)(C)[C@H](Oc7ccc(C#N)c(Cl)c7)C6(C)C)cn5)CC4)C3)c2F)c2cc[nH]c2c1=O [Compound I-196] | – | 500 to 1500 | > 3000 | < 500 |
| CN(c1ccc(Oc2ccc(C(C)(C)O)cc2-c2cn(C)c(=O)c3[nH]ccc23)cc1)C1CCN(c2ncc(C(=O)N[C@H]3C(C)(C)[C@H](Oc4ccc(C#N)c(Cl)c4)C3(C)C)cn2)CC1 [Compound I-197] | < 500 | – | < 500 | < 500 |
| Cn1cc(-c2cc(C(C)(C)O)ccc2Oc2ccc(CC3CCN(c4ncc(C(=O)N[C@H]5C(C)(C)[C@H](Oc6ccc(C#N)c(Cl)c6)C5(C)C)cn4)CC3)cc2)c2cc[nH]c2c1=O [Compound I-201] | < 500 | – | 500 to 1500 | < 500 |
| Cn1cc(-c2cc(C(C)(C)O)ccc2Oc2ccc(OCC3CCN(c4ncc(C(=O)N[C@H]5C(C)(C)[C@H](Oc6ccc(C#N)c(Cl)c6)C5(C)C)cn4)CC3)cc2)c2cc[nH]c2c1=O [Compound I-202] | 500 to 1500 | – | 500 to 1500 | < 500 |
| Cn1cc(-c2cc(C(C)(C)O)ccc2Oc2ccc(CCC3CCN(c4ncc(C(=O)N[C@H]5C(C)(C)[C@H](Oc6ccc(C#N)c(Cl)c6)C5(C)C)cn4)CC3)cc2)c2cc[nH]c2c1=O [Compound I-203] | 500 to 1500 | – | > 3000 | < 500 |
| Cn1cc(-c2cc(C(C)(C)O)ccc2Oc2ccc(OCCN3CCN(c4ncc(C(=O)N[C@H]5C(C)(C)[C@H](Oc6ccc(C#N)c(Cl)c6)C5(C)C)cn4)CC3)cc2)c2cc[nH]c2c1=O [Compound I-204] | < 500 | – | 500 to 1500 | < 500 |
| CN(C1CCN(c2ncc(C(=O)N[C@H]3C(C)(C)[C@H](Oc4ccc(C#N)c(Cl)c4)C3(C)C)cn2)CC1)C1CN(c2ccc(Oc3ccc(C(C)(C)O)cc3-c3cn(C)c(=O)c4[nH]ccc34)cc2)C1 [Compound I-208] | < 500 | – | < 500 | < 500 |
| CN(CCCc1ccc(Oc2ccc(C(C)(C)O)cc2-c2cn(C)c(=O)c3[nH]ccc23)cc1)c1ncc(C(=O)N[C@H]2C(C)(C)[C@H](Oc3ccc(C#N)c(Cl)c3)C2(C)C)cn1 [Compound I-211] | < 500 | – | < 500 | < 500 |
| Cn1cc(-c2cc(C(C)(C)O)ccc2Oc2ccc(N3CC4(C3)CN(c3ncc(C(=O)N[C@H]5C(C)(C)[C@H](Oc6ccc(C#N)c(Cl)c6)C5(C)C)cn3)CCO4)cc2)c2cc[nH]c2c1=O [Compound I-212] | – | 500 to 1500 | 500 to 1500 | < 500 |
| CC(C)N(CC1CCN(c2ncc(C(=O)N[C@H]3C(C)(C)[C@H](Oc4ccc(C#N)c(Cl)c4)C3(C)C)cn2)CC1)[C@H]1C[C@H](Oc2cccc(Oc3ccc(C(C)(C)O)cc3-c3cn(C)c(=O)c4[nH]ccc34)c2F)C1 [Compound I-214] | < 500 | – | < 500 | < 500 |
| Cn1cc(-c2cc(C(C)(C)O)ccc2Oc2cccc(N3CC4(CN(c5ncc(C(=O)N[C@H]6C(C)(C)[C@H](Oc7ccc(C#N)c(Cl)c7)C6(C)C)cn5)CCO4)C3)c2F)c2cc[nH]c2c1=O [Compound I-216] | < 500 | – | < 500 | < 500 |
| CCS(=O)(=O)c1ccc(Oc2cccc(OCCN3CCN(c4ncc5c(n4)CN([C@H]4C(C)(C)[C@H](Oc6ccc(C#N)c(Cl)c6)C4(C)C)C5=O)CC3)c2F)c(-c2cn(C)c(=O)c3[nH]ccc23)c1 [Compound I-217] | – | < 500 | < 500 | < 500 |
| Cn1cc(-c2cc(C(C)(C)O)ccc2Oc2ccc(N3CC(OC4CCN(c5ncc(C(=O)N[C@H]6C(C)(C)[C@H](Oc7ccc(C#N)c(Cl)c7)C6(C)C)cn5)CC4)C3)cc2)c2cc[nH]c2c1=O [Compound I-219] | < 500 | – | < 500 | < 500 |
| CCS(=O)(=O)c1ccc(Oc2ccc(OCC3CCN(c4ncc5c(n4)CN([C@H]4C(C)(C)[C@H](Cc6ccc(C#N)c(Cl)c6)C4(C)C)C5=O)CC3)cc2)c(-c2cn(C)c(=O)c3[nH]ccc23)c1 [Compound I-220] | < 500 | – | < 500 | < 500 |

Second part, led by results:

| GI50 (T47D cells; Homo sapiens) [nM] | GI50 (T47D cells) [nM] | SMILES | GI50 [1] [nM] | GI50 [2] [nM] |
| --- | --- | --- | --- | --- |
| 500 to 1500 | – | CC(C)N(C1CCN(c2ncc(C(=O)N[C@H]3C(C)(C)[C@H](Oc4ccc(C#N)c(Cl)c4)C3(C)C)cn2)CC1)C1CN(c2cccc(Oc3ccc(C(C)(C)O)cc3-c3cn(C)c(=O)c4[nH]ccc34)c2F)C1 [Compound I-221] | > 3000 | < 500 |
| < 500 | – | CCS(=O)(=O)c1ccc(OC(CCCCN2CCN(c3ncc(C(=O)NC4C(C)(C)C(Oc5ccc(C#N)c(Cl)c5)C4(C)C)cn3)CC2)C2CC2)c(-c2cn(C)c(=O)c3[nH]ccc23)c1 (stereo not drawn) [Compound I-223, N-[3-(3-chloro-4-cyano-phenoxy)-2,2,4,4-tetramethyl-cyclobutyl]-2-[4-[5-cyclopropyl-5-[4-ethylsulfonyl-2-(6-methyl-7-oxo-1H-pyrrolo[2,3-c]pyridin-4-yl)phenoxy]pentyl]piperazin-1-yl]pyrimidine-5-carboxamide] | < 500 | < 500 |
| < 500 | – | Cn1cc(-c2cc(C(C)(C)O)ccc2Oc2ccc(N3CC(CN4CC5CC4CN5c4ncc(C(=O)N[C@H]5C(C)(C)[C@H](Oc6ccc(C#N)c(Cl)c6)C5(C)C)cn4)C3)cc2)c2cc[nH]c2c1=O (stereo partly drawn) [Compound I-228] | < 500 | < 500 |
| < 500 | – | CCS(=O)(=O)c1ccc(OCC(CCCN2CCN(c3ncc(C(=O)NC4C(C)(C)C(Oc5ccc(C#N)c(Cl)c5)C4(C)C)cn3)CC2)C2CC2)c(-c2cn(C)c(=O)c3[nH]ccc23)c1 (stereo not drawn) [Compound I-231, N-[3-(3-chloro-4-cyano-phenoxy)-2,2,4,4-tetramethyl-cyclobutyl]-2-[4-[4-cyclopropyl-5-[4-ethylsulfonyl-2-(6-methyl-7-oxo-1H-pyrrolo[2,3-c]pyridin-4-yl)phenoxy]pentyl]piperazin-1-yl]pyrimidine-5-carboxamide] | < 500 | < 500 |
| < 500 | – | Cn1cc(-c2cc(C(C)(C)O)ccc2Oc2ccc(N3CC(CC4CCN(c5ncc(C(=O)N[C@H]6C(C)(C)[C@H](Oc7ccc(C#N)c(Cl)c7)C6(C)C)cn5)CC4)C3)cc2)c2cc[nH]c2c1=O [Compound I-232] | > 3000 | < 500 |
| – | < 500 | CN(C1CN(c2ccc(Oc3ccc(C(C)(C)O)cc3-c3cn(C)c(=O)c4[nH]ccc34)cc2)C1)C1CN(c2ncc(C(=O)N[C@H]3C(C)(C)[C@H](Oc4ccc(C#N)c(Cl)c4)C3(C)C)cn2)C1 [Compound I-238] | 500 to 1500 | < 500 |
| – | < 500 | CN(CC1CCN(c2ncc(C(=O)N[C@H]3C(C)(C)[C@H](Oc4ccc(C#N)c(Cl)c4)C3(C)C)cn2)CC1)C1(c2ccc(Oc3ccc(C(C)(C)O)cc3-c3cn(C)c(=O)c4[nH]ccc34)cc2)COC1 [Compound I-255] | 500 to 1500 | < 500 |
| < 500 | – | Cn1cc(-c2cc(C(C)(C)O)ccc2Oc2ccc(CCCC3CC4(C3)CN(c3ncc(C(=O)N[C@H]5C(C)(C)[C@H](Oc6ccc(C#N)c(Cl)c6)C5(C)C)cn3)C4)cc2)c2cc[nH]c2c1=O [Compound I-268] | 500 to 1500 | < 500 |
| < 500 | – | Cn1cc(-c2cc(C(C)(C)O)ccc2Oc2ccc(N3CC(CC4CN(c5ncc(C(=O)N[C@H]6C(C)(C)[C@H](Oc7ccc(C#N)c(Cl)c7)C6(C)C)cn5)C4)C3)cc2)c2cc[nH]c2c1=O [Compound I-280] | 1500 to 3000 | < 500 |
